≈ marks a conversion by molar mass, not a printed value.
Assays:
Experiment in all cases: microbe, parasite or virus in culture
Format in all cases: cell-based
[1] = test system: broad panel of different clinical isolates
In short: (§1)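 Inoculum for broth microdilution was 5×10^5 CFU/mL final, prepared from overnight 35° C blood-agar subcultures (separate handling for streptococcal and anaerobic strains); MICs read by CLSI broth microdilution or agar dilution.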

S. aureus BAA 977 iErmA = details: Staphylococcus aureus, BAA-977 / MRSA
In short: as §1

S. aureus MP-549 msrA = details: Staphylococcus aureus, MP549MSRA; S. aureus HAV#032, MP-549; MSR(A); read-out: MIC
In short: as §1

For `C[C@H]1COc2c(N3CCN(C)CC3)c(F)cc3c(=O)c(C(=O)O)cn1c23` [Levofloxacin], the MIC ([1]; Enterococcus faecium, VRE, E. faecium HAV#319, Line R & Vanco R) was 128 µg/mL (≈ 354 µM), the MIC ([1]; Enterococcus faecium, VRE, E. faecium HAV#320, Clinical) was 4 µg/mL (≈ 11.1 µM) and the MIC ([1]; Escherichia coli, E. coli HAV#501, Clinical) was 32 µg/mL (≈ 88.6 µM). For the same compound, the MIC ([1]; Escherichia coli, E. coli HAV#503, Clinical) was 64 µg/mL (≈ 177 µM), the MIC ([1]; Escherichia coli, E. coli HAV#511, Clinical) was 4 µg/mL (≈ 11.1 µM) and the MIC ([1]; Escherichia coli, E. coli HAV#512, Clinical) was under 0.06 µg/mL. It also gave an MIC ([1]; Escherichia coli, E. coli HAV#513, Clinical) of 2 µg/mL (≈ 5.53 µM), an MIC ([1]; Escherichia coli, E. coli HAV#514, Clinical) of under 0.06 µg/mL and an MIC ([1]; Escherichia coli, E. coli HAV#516, ESBL-producing) of 16 µg/mL (≈ 44.3 µM). For the same compound, the MIC ([1]; Haemophilus influenzae, ATCC9007, H. influenzae HAV#376, ATCC-9007) was 0.03 µg/mL (≈ 0.083 µM), the MIC ([1]; Klebsiella pneumoniae, K. pneumoniae HAV#041, Clinical, KPC) was 64 µg/mL (≈ 177 µM) and the MIC ([1]; Klebsiella pneumoniae, K. pneumoniae HAV#404, Clinical) was 1 µg/mL (≈ 2.77 µM). The MIC ([1]; Klebsiella pneumoniae, K. pneumoniae HAV#405, Clinical) was 1 µg/mL (≈ 2.77 µM), the MIC ([1]; Klebsiella pneumoniae, K. pneumoniae HAV#406, Clinical) was 0.125 µg/mL (≈ 0.346 µM) and the MIC ([1]; Klebsiella pneumoniae, K. pneumoniae HAV#407, Clinical) was over 128 µg/mL. For the same compound, the MIC ([1]; Klebsiella pneumoniae, K. pneumoniae HAV#408, Clinical) was 1 µg/mL (≈ 2.77 µM), the MIC ([1]; Klebsiella pneumoniae, K. pneumoniae HAV#409, ESBL-producing) was 0.5 µg/mL (≈ 1.38 µM) and the MIC ([1]; Staphylococcus aureus, MRSA, S. aureus HAV#0107, MRSA Col(Colindale, England)) was 1 µg/mL (≈ 2.77 µM). It also gave an MIC ([1]; Staphylococcus aureus, MRSA, S. aureus HAV#218, Line R) of 0.25 µg/mL (≈ 0.692 µM), an MIC ([1]; Staphylococcus aureus, MRSA, S. aureus HAV#220, Line R) of 64 µg/mL (≈ 177 µM) and an MIC ([1]; Staphylococcus aureus, MSSA, S. aureus HAV#219, Line R) of 0.25 µg/mL (≈ 0.692 µM). For the same compound, the MIC ([1]; Staphylococcus aureus, S. aureus HAV#051, mecA, norA, spcl, ermA, aad1, aac6′-aph2″) was 0.5 µg/mL (≈ 1.38 µM), the MIC ([1]; Staphylococcus aureus, S. aureus HAV#052, mecA, norA, fosB, blaZ) was 1 µg/mL (≈ 2.77 µM) and the MIC ([1]; Staphylococcus aureus, S. aureus HAV#053 mecA, norA, fosB) was 0.5 µg/mL (≈ 1.38 µM). The MIC ([1]; Staphylococcus aureus, S. aureus HAV#054, mecA, norA, spcl, aad1, fosB, ermA, aac6′-aph2″, blaZ) was 32 µg/mL (≈ 88.6 µM), the MIC ([1]; Staphylococcus aureus, S. aureus HAV#212, Clinical) was 0.25 µg/mL (≈ 0.692 µM) and the MIC ([1]; Staphylococcus aureus, S. aureus HAV#213, Clinical) was 2 µg/mL (≈ 5.53 µM). The MIC ([1]; Staphylococcus aureus, S. aureus HAV#214, Clinical) was 0.25 µg/mL (≈ 0.692 µM), the MIC ([1]; Staphylococcus aureus, S. aureus HAV#215, Clinical) was 0.25 µg/mL (≈ 0.692 µM) and the MIC ([1]; Staphylococcus aureus, S. aureus HAV#217, cfr) was 2 µg/mL (≈ 5.53 µM). For the same compound, the MIC ([1]; Staphylococcus aureus, VISA, S. aureus HAV#203, Clinical (VISA)) was 8 µg/mL (≈ 22.1 µM), the MIC ([1]; Staphylococcus epidermidis, S. epidermidis HAV# 275 Clinical, cfr) was 16 µg/mL (≈ 44.3 µM) and the MIC ([1]; Staphylococcus epidermidis, S. epidermidis HAV# 276, cfr) was 128 µg/mL (≈ 354 µM). It also gave an MIC ([1]; Staphylococcus epidermidis, S. epidermidis HAV#277, Line R) of over 128 µg/mL, an MIC ([1]; Staphylococcus epidermidis, S. epidermidis HAV#278 Line R) of 16 µg/mL (≈ 44.3 µM) and an MIC ([1]; Staphylococcus epidermidis, S. epidermidis HAV#279, Line R) of 8 µg/mL (≈ 22.1 µM). The MIC ([1]; Staphylococcus haemolyticus, S. haemolyticus 5052, Line R & Methicillin R) was 8 µg/mL (≈ 22.1 µM), the MIC ([1]; Streptococcus pneumoniae, ATCC700673, S. pneumoniae HAV#352, ATCC 700673, MDR) was 0.5 µg/mL (≈ 1.38 µM) and the MIC ([1]; Streptococcus pneumoniae, ATCCBAA255, S. pneumoniae HAV#354, ATCC-BAA-255) was 0.25 µg/mL (≈ 0.692 µM). The MIC ([1]; Streptococcus pneumoniae, ATCCBAA334, S. pneumoniae HAV#353, ATCC-BAA-334) was 0.5 µg/mL (≈ 1.38 µM), the MIC ([1]; Streptococcus pneumoniae, S. pneumoniae HAV#356, Clinical) was 0.25 µg/mL (≈ 0.692 µM) and the MIC ([1]; Streptococcus pneumoniae, S. pneumoniae HAV#358, Clinical) was 0.25 µg/mL (≈ 0.692 µM). It also gave an MIC (S. aureus BAA 977 iErmA) of 0.5 µg/mL (≈ 1.38 µM) and an MIC (S. aureus MP-549 msrA) of 1 µg/mL (≈ 2.77 µM).

Source: patent publication US20230203081A1, “LINCOSAMIDE ANTIBIOTICS AND USES THEREOF” (President and Fellows of Harvard College, priority 2020, published 2023)
